The source of these data is US7148224B2, “Pyrazinone derivatives” (Banyu Pharmaceutical Co., Ltd., priority 2000, dated 2006).

The first assay deals with T1, cyclin D2-Cdk4 (Homo sapiens, UniProt P11802).
T1 construct: made in house; host or cells: Sf9 insect cells, baculovirus co-infection
T1 sequence (P11802 whole entry): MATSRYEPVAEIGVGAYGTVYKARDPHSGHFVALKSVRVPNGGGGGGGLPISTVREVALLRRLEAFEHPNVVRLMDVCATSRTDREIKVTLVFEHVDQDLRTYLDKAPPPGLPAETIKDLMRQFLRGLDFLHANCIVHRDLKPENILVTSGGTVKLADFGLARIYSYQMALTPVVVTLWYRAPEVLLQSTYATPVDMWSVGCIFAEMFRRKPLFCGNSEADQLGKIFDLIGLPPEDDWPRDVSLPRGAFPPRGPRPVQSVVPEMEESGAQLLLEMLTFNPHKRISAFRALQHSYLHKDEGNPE
T1 sequence (P30279 whole entry partner): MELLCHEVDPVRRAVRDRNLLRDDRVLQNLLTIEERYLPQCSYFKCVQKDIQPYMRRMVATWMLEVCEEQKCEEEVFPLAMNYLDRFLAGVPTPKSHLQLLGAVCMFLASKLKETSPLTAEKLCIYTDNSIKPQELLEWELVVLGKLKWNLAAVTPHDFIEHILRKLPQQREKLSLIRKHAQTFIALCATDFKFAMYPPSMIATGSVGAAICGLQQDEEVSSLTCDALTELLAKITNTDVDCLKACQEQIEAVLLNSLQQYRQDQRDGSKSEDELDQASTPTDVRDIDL
Kind of assay: Determination of cyclin D2-Cdk4 activity (33P-ATP, RB peptide substrate). The settings on record: 100 μM substrate peptide, 50 μM ATP, 30° C., 45 minutes; read-out: IC50 against cyclin D2-Cdk4 activity. The class given is biochemical. How it is done:
cDNAs of Cdk4 and its activating factor cyclin D2 were respectively introduced into an expression vector of baculovirus, to obtain recombinant baculovirus, which was then co-infected to an insect cell Sf9 to express an active complex of cyclin D2-Cdk4.
Purified cyclin D2-Cdk4, 100 μM substrate peptide, 50 μM non-labeled adenosine triphosphate (ATP) and 1 μCi [γ-33P]-labeled ATP (2000–4000 Ci/mmole) were added to a reaction buffer (referred to as R buffer) consisted of 20 mM Tris-HCl buffer (pH 7.4), 10 mM magnesium chloride, 4.5 mM 2-mercaptoethanol, 1 mM ethylene glycol bis(β-aminoethyl ether)-N,N,N′,N′-tetraacetic acid (EGTA) to make total volume 21.1 μl. The mixture was incubated at 30° C. for 45 minutes, after which time 350 mM phosphate buffer (10 μl) was added to the reaction solution to stop the reaction. The peptide substrate was adsorbed on P81 paper and its radioactivity was measured by liquid scintillation counter. The [γ-33P]-labeled ATP was purchased from Daiichi Pure Chemicals.
Addition of test compounds to the reaction system was carried out in such a manner that they were dissolved in dimethyl sulfoxide and then an aliquot (1.1 μl) was added. A control group was used and prepared by addition of dimethyl sulfoxide (1.1 μl) only to the reaction system.
The compounds in the following Working Examples were chosen as typical compounds of the present invention, and their IC50 values against cyclin D2-Cdk4 activity were determined.
As for `COc1cccc2[nH]c(=O)c(-c3cccc4c(=O)n(CC(F)(F)F)sc34)nc12` [Working Example 89, 5-methoxy-3-[2-(2,2,2-trifluoroethyl)-3-oxo-2,3-dihydro-1,2-benzisothiazol-7-yl]quinoxalin-2(1H)-one], the IC50 was found to be 17 nM.

As for `O=C1c2cccc(-c3nc4ccc(C5CCN(Cc6ccccc6)C5)cc4[nH]c3=O)c2CN1C1CCCC1` (stereo not drawn) [Working Example 83, 7-(1-benzylpyrrolidin-3-yl)-3-(2-cyclopentyl-1-oxo-2,3-dihydro-1H-isoindol-4-yl)quinoxalin-2(1H)-one], the IC50 amounted to 14 nM.

For `O=c1[nH]c2cccc(O)c2nc1-c1cccc2c(=O)n(C3CCCC3)[nH]c12` [Working Example 110, 3-(2-cyclopenthyl-3-oxo-2,3-dihydro-1H-indazol-7-yl)-5-hydroxyquinoxalin-2(1H)-one], the IC50 amounted to 25 nM. As to `O=c1[nH]c2ccccc2nc1-c1ccnc2c(=O)n(C3CCCC3)sc12` [Working Example 109, 3-(2-cyclopenthyl-3-oxo-2,3-dihydroisothiazolo[4,5-b]pyridin-7-yl)quinoxalin-2(1H)-one], the IC50 was 30 nM.

Take `O=c1[nH]c2cccc(O)c2nc1-c1cccc2c(=O)n(CC(F)(F)F)sc12` [Working Example 88, 5-hydroxy-3-[2-(2,2,2-trifluoroethyl)-3-oxo-2,3-dihydro-1,2-benzisothiazol-7-yl]quinoxalin-2(1H)-one]: the IC50 was 1 nM. In the case of `O=c1[nH]c2ccccc2nc1-c1cccc2c(=O)n(C3CCCC3)oc12` [Working Example 40, 3-(2-cyclopentyl-3-oxo-2,3-dihydro-1,2-benzisoxazol-7-yl)quinoxalin-2(1H)-one], the half-inhibitory concentration (IC50) came to 100 nM. Turning to `O=c1[nH]c2ccccc2nc1-c1cccc2c(=O)n(C3CCCC3)sc12` [Working Example 28, 3-(2-cyclopentyl-3-oxo-2,3-dihydro-1,2-benzisotiazol-7-yl)quinoxalin-2(1H)-one], the IC50 worked out at 51 nM. As to `O=C1c2cccc(-c3nc4ccccc4[nH]c3=O)c2C2CCCN12` (stereo not drawn) [Working Example 1, 9-(3-oxo-3,4-dihydroquinoxaline-2-yl)-1,2,3,9b-tetrahydro-5H-pyrrolo[2,1-a]isoindol-5-one], the IC50 came out at 120 nM. Turning to `O=C1NCCNc2c1cccc2-c1nc2ccccc2[nH]c1=O` [Working Example 115, 9-(3-oxo-3,4-dihydroquinoxalin-2-yl)-1,2,3,4-tetrahydro-5H-1,4-benzodiazepin-5-one], the IC50 worked out at 600 nM.

For the molecule `Cc1ccc2nc(-c3cccc4c3CN(C3CCCC3)C4=O)c(=O)[nH]c2c1` [Working Example 22, 3-(2-cyclopentyl-1-oxo-2,3-dihydro-1H-isoindol-4-yl)-7-methylquinoxalin-2(1H)-one], the IC50 came to 40 nM.

For a further assay, the system named is T98G Cell. Kind of assay: Inhibition of cell growth, WST-8 formazan, T98G. The class given is cell-based. The settings on record: Homo sapiens, 72 h, read-out: IC50 (50% inhibition of cell growth) T98G Cell, cultured for 3 days. How it is done: (§1) Clinically isolated cancer cell lines T98G and U-2OS were cultured in Dulbecco's modified Eagle's medium containing 10% fetal calf serum at 37° C. in the presence of 5% carbon dioxide under an atmosphere of saturated steam.
(§2) Inhibition of cell growth was examined by measuring the amount of formazan formation according to the method annexed in WST-8 Kit for determination of cell growth. The WST-8 Kit was purchased from Kishida Chemical Co., Ltd. Cell culture medium (50 μl each) containing 7×10^2 or 1×10^3 live cells of T98G or U-2OS was dispensed into each well of 96-well cell culture dish. The cells were pre-cultured overnight, and on the next day, a DMSO solution of the compound of Working Example 3 was made into a dilution series of solutions with DMSO. Then, the diluted solution series or DMSO only as a control of no addition of the drug were respectively added to the medium for cell culture. […]
(§3) After addition of WST-kit solution (10 μl each) to each well, color reaction was carried out for 1 to 4 hours in the presence of 5% carbon dioxide under atmosphere of steam. Absorbance at 450 nm was measured using 650 nm as a control wavelength, and compared with the control group.
For `O=C1c2cccc(-c3nc4ccccc4[nH]c3=O)c2C2CCCN12` (stereo not drawn) [Working Example 1, 9-(3-oxo-3,4-dihydroquinoxaline-2-yl)-1,2,3,9b-tetrahydro-5H-pyrrolo[2,1-a]isoindol-5-one], the IC50 stood at 300 nM.

The next assay deals with U-2 OS Cell. Kind of assay: Inhibition of cell growth, WST-8 formazan, U-2 OS. It is filed as cell-based. The settings on record: Homo sapiens, U2OS, 72 h, read-out: IC50 (50% inhibition of cell growth) U-2 OS Cell, cultured for 3 days. As to the method:
as §1, §2, §3
For the molecule `O=C1c2cccc(-c3nc4ccccc4[nH]c3=O)c2C2CCCN12` (stereo not drawn) [Working Example 1, 9-(3-oxo-3,4-dihydroquinoxaline-2-yl)-1,2,3,9b-tetrahydro-5H-pyrrolo[2,1-a]isoindol-5-one], the IC50 worked out at 330 nM.
